The results in this text go back to EPA's ToxValDB 9.5.

In general, LD50 refers to the dose expected to kill half of the subjects tested. A higher LD50 goes with a less toxic substance. For orientation: LOAEL means the lowest tested level that showed an adverse finding. For orientation: NOAEL means the highest tested level that showed no adverse finding. As a reminder, the LC50 is the concentration lethal to half of the exposed cells or organisms.

The test system of the data set is Rattus norvegicus. Particulars: for LD50 / LC50: acute.
The mark [1] stands for this setting: subchronic, duration: 13 weeks, oral, gavage, Sprague-Dawley.
Setting [2] is: reproduction developmental, duration: 24 weeks, inhalation, generation: F0.
Where [3] appears, read: reproduction developmental, duration: 24 weeks, inhalation, generation: F1.
Where [4] appears, read: reproduction developmental, duration: 10 days, oral, gavage, F.
[5] abbreviates: short-term, duration: 12 days, inhalation, F, Fischer 344.
The mark [6] stands for this setting: short-term, duration: 12 days, inhalation, M, Fischer 344.
The mark [7] stands for this setting: short-term, duration: 14 days, oral, gavage, F, Crj:CD(SD).
[8] abbreviates: short-term, duration: 14 days, oral, gavage, M, Crj:CD(SD).
The mark [9] stands for this setting: subchronic, duration: 13 weeks, inhalation, F, Fischer 344.
Setting [10] is: subchronic, duration: 13 weeks, inhalation, M, Fischer 344.

≈ marks a conversion by molar mass, not a printed value. Where “and” joins values, the source holds several entries; their conditions need not be identical. Equal entries are not always repeated.

Consider `CCCCN(CCCC)c1ccc(C(=O)c2ccccc2C(=O)O)c(O)c1` [2-[4-(Dibutylamino)-2-hydroxybenzoyl]benzoic acid], for which the LD50 is more than 2000 mg/kg (dermal, Sprague-Dawley) and more than 5000 mg/kg (oral, gavage, Sprague-Dawley). The LOAEL runs as follows: (reproduction developmental, duration: 21 weeks, oral, gavage, M, Sprague-Dawley) 250 mg/kg-day; (reproduction developmental, duration: 21 weeks, oral, gavage, Sprague-Dawley, generation: F1) 250 mg/kg-day; (short-term, duration: 28 days, oral, gavage, M, Sprague-Dawley) 1000 mg/kg-day; under setting [1], 250 mg/kg-day. In addition, the NOAEL under setting [1] turned out to be 50 mg/kg-day.
With `C1COCO1` [1,3-Dioxolane], the 50% lethal concentration (LC50) (inhalation, Crl:CD1) was 68.4 µg/mL (≈ 923 µM). The same molecule showed an LD50 (oral, gavage, Sprague-Dawley) of 5200 mg/kg. For the same molecule, the LOAEL by setting is: (developmental, duration: 10 days, oral, gavage) 1000 mg/kg-day; under setting [2], more than 379 mg/m3; under setting [3], more than 379 mg/m3; under setting [4], 500 mg/kg-day; under setting [5], 7030 mg/m3; under setting [6], 7030 mg/m3. Besides, the LOAEL reads like this: under setting [7], 250 mg/kg-day; under setting [8], 250 mg/kg-day; under setting [9], 3030 mg/m3; under setting [10], 9120 mg/m3. Also, the NOAEL reads like this: under setting [2], 379 mg/m3; under setting [3], 379 mg/m3; under setting [4], 250 mg/kg-day; under setting [5], 1560 mg/m3; under setting [6], 1560 mg/m3; under setting [7], 75 mg/kg-day. Further, the no observed adverse effect level (NOAEL) by setting is: under setting [8], 75 mg/kg-day; under setting [9], 903 mg/m3; under setting [10], 3030 mg/m3.
With `CC(C)(N)C#N` [2-Amino-2-methylpropionitrile], the LD50 (oral, Sprague-Dawley) was ≥ 10 mg/kg and ≤ 30 mg/kg. This molecule yielded a no-observed-adverse-effect level (NOAEL) (short-term, duration: 2 weeks, inhalation, M, Sprague-Dawley) of 75.7 mg/m3.
As to `CCCCCCC([O-])CCCCCCCCCCC(=O)OC.[Li+]` (stereo not given) [Lithium methyl 12-hydroxystearate], the NOAEL runs as follows: (reproduction developmental, duration: 0 days, dermal, non-occlusive, F, Sprague-Dawley) more than 2000 mg/kg-day; (reproduction developmental, duration: 10 weeks, dermal, non-occlusive, M, Fischer 344) less than 500 mg/kg-day; (subchronic, duration: 13 weeks, dermal, non-occlusive, F, Sprague-Dawley) 500 mg/kg-day.
`O=S(=O)([O-])CCO.[Na+]` [Sodium 2-hydroxyethanesulfonate] displayed an LD50 (oral, gavage, Wistar) of more than 5000 mg/kg.
For the molecule `N#Cc1nc(Cl)c(Cl)c(Cl)c1Cl` [3,4,5,6-Tetrachloropyridine-2-carbonitrile], the LD50 (oral, gavage) is ≥ 1000 mg/kg and ≤ 2000 mg/kg.
For the molecule `OP(O)c1ccccc1` [Phenylphosphinic acid], where the note is “oral, gavage”, the LD50 is 1470 mg/kg and 1710 mg/kg. Where the note is “subchronic, duration: 31 days, oral, diet”, the NOAEL came to 960 mg/kg-day.
`C=C(C)CC` [2-Methylbutene] returned an LC50 (inhalation, Wistar) of more than 61000 ppm. In addition, the no observed adverse effect level (NOAEL) (reproduction developmental, inhalation, Sprague-Dawley) is 7000 ppm.
`O=C(O)c1cccc(C(=O)O)c1` [1,3-Benzenedicarboxylic acid] registered a no observed adverse effect level (NOAEL) (developmental, duration: 10 days, Inhalation, Sprague-Dawley) of more than 10 mg/m3.
In the case of `CCCCCCCCCCc1cc(Oc2ccc(S(=O)(=O)O)cc2)ccc1S(=O)(=O)O` [Decyl(sulfophenoxy)benzenesulfonic acid], the LD50 was ≥ 1000 mg/kg and ≤ 2000 mg/kg (oral, gavage, Fischer 344); 3010 mg/kg (oral, gavage, Sprague-Dawley).
`CC(C)CCCCCCCOC(=O)CCCCCCCC(=O)OCCCCCCCC(C)C` [Diisodecyl azelaate]: the LD50 (oral, gavage, Wistar) was more than 2000 mg/kg.
`COc1cc(NC(=O)C(N=Nc2ccc(-c3ccc(N=NC(C(C)=O)C(=O)Nc4cc(OC)c(Cl)cc4OC)c(Cl)c3)cc2Cl)C(C)=O)c(OC)cc1Cl` (stereo not given) [C.I. Pigment Yellow 83] came in with an LD50 (oral, gavage) of more than 1750 mg/kg. This molecule returned an NOAEL (chronic, duration: 104 weeks, oral, gavage, Sprague-Dawley) of 630 mg/kg-day.
`O=[N+]([O-])c1ccc(C=Cc2ccc([N+](=O)[O-])cc2S(=O)(=O)[O-])c(S(=O)(=O)[O-])c1.[Na+].[Na+]` [Disodium 4,4'-dinitro-2,2'-stilbenedisulfonate] displayed an LD50 (oral) of more than 16000 mg/kg.
With `CCCCCCCCCCCCCOC(=O)CCSCCC(=O)OCCCCCCCCCCCCC` [Di(tridecyl) thiodipropionate], for the setting “oral”, the 50% lethal dose (LD50) was more than 2000 mg/kg.
For the setting “oral, gavage”, `Cc1ccc(C)c(O)c1C` [2,3,6-Trimethylphenol] had an LD50 of more than 2000 mg/kg.
On to `CC12CCCCC1C(=O)OC2=O` (stereo not given) [Methylhexahydrophthalic anhydride], for which the LD50 (oral) was 3300 mg/kg.
As to `OCCCO` [1,3-Propanediol], the LD50 (oral, gavage, Wistar) was found to be 15.8 mg/kg.
